SMILES strings stand for the structures. Where only a bound is given, the exact number is not on record here.

Inhibition and pest or weed control data for 35 compounds are collected here from patent US12540118B2, “Dendrene amide compound, bactericide and use thereof” (Jiangsu Flag Chemical Industry Co., Ltd., priority 2020, dated 2026).

One experiment deals with T1, succinate dehydrogenase (Sus scrofa, UniProt A5GZW8+D0VWV4+Q007T0).
T1 construct: isolated from porcine hearts; from tissue; host or cells: porcine heart
Description: Enzyme activity assay, succinate dehydrogenase (DCIP reduction). The settings on record: read-out: Inhibitors (10 μM, SQR). The format is biochemical, porcine. The protocol:
The inhibitory activities of control agents and target compounds on succinate dehydrogenase are determined.
The enzyme used in this test example is succinate dehydrogenase, which is isolated from porcine hearts.
The test method comprises the following steps: The total volume of the system is 1.8 ml, and the system contained 100 mM Na2HPO4—NaH2PO4 buffer (pH=7.4), 0.3 mM EDTA, 20 mM sodium succinate, 53 μM DCIP (2,6-dichloroindophenol sodium), and 2 nM succinate dehydrogenase. Thermostatic waterbath at 23° C. and magnetic stirring at 600 rpm. The decrease in the light absorption of the substrate DCIP is monitored at a wavelength of 600 nm and experimental points in a linear range are collected. Control substrate consumption not more than 5% of the experimental points. The molar extinction coefficient of DCIP is 21 mM^−1 cm^−1. And calculating the reduction yield of the DCIP in the reaction time, fitting a linear slope, and deducting the baseline slope to obtain the initial reaction speed.

A further experiment has as its system Erysiphe graminis. Description: Erysiphe graminis potting method. Particulars: Blumeria graminis; 100 mg/L; read-out: Erysiphe graminis control rating. The format is in vivo. The protocol:
The fungicidal activity of the control agents and target compounds are determined. The test and investigation method refers to SOP-SC-1116 Erysiphe graminis potting method in disinfectant rolls written by KANGZHUO and GUBAOGEN in “Standard operation specification for testing biological activity of pesticides”.

The test system of another experiment is Sphaerotheca fuliginea. Description: Sphaerotheca fuliginea potting method. The experiment is classed as in vivo. The settings on record: Podosphaera fuliginea; 100 mg/L; read-out: Sphaerotheca fuliginea control rating. The protocol:
The fungicidal activity of the control agents and target compounds are determined. The test and investigation method refers to SOP-SC-1101 sphaerotheca fuliginea potting method in disinfectant rolls written by KANGZHUO and GUBAOGEN in “Standard operation specification for testing biological activity of pesticides”.

T1 sequence (Q0QF01 43-664 partner): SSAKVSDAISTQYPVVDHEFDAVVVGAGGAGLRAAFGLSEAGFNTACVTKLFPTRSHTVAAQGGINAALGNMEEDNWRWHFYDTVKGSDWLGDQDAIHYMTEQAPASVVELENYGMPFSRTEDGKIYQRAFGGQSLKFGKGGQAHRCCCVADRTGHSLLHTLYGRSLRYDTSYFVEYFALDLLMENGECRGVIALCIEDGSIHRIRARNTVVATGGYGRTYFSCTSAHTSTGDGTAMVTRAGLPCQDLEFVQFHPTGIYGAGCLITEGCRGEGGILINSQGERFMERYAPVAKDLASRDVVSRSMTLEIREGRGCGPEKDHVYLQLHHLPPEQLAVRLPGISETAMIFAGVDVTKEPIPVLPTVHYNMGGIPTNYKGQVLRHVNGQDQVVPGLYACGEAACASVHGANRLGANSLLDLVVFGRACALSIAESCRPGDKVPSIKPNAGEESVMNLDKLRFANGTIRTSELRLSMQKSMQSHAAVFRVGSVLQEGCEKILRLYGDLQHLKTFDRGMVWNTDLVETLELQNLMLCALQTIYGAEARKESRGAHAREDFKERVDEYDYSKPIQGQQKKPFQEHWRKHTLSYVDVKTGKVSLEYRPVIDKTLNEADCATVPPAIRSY
T1 sequence (Q007T0 29-280): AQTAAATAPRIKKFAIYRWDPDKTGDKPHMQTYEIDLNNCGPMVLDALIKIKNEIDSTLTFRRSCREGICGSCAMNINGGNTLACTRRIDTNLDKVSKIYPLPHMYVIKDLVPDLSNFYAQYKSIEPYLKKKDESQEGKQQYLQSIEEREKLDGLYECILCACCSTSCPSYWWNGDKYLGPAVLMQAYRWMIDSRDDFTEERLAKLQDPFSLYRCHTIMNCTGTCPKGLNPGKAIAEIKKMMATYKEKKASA
T1 sequence (D0VWV4 30-169): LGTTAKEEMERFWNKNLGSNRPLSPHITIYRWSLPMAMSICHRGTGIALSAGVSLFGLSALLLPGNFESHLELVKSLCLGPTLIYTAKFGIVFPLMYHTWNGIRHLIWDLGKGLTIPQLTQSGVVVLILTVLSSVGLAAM
T1 sequence (A5GZW8 57-159 limits assumed): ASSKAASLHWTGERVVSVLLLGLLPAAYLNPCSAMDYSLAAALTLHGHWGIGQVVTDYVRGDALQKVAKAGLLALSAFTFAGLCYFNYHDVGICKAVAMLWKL

Take `Cn1nc(C(F)F)c(C(=O)N(CC(=C(Cl)Cl)c2ccc(Br)c(Br)c2)C2CC2)c1F` [Compound 138]: the inhibition at 10 µM on succinate dehydrogenase is > 90%. The pest or weed control at 100 µg/mL with Erysiphe graminis and with Sphaerotheca fuliginea was 80 to 100% in each case.

On to `CCS(=O)(=O)c1cccc(C(CN(C(=O)c2c(C(F)F)nn(C)c2F)C2CC2)=C(Cl)Cl)c1` [Compound 164], for which the inhibition at 10 µM on succinate dehydrogenase was > 90%. Also, the pest or weed control at 100 µg/mL with Erysiphe graminis and in the experiment with Sphaerotheca fuliginea was 80 to 100% in each case.

`Cc1ccc(C(=C(Cl)Cl)C(C)N(C(=O)c2c(C(F)F)nn(C)c2F)C2CC2)cc1` (stereo not drawn) [Compound 203]: the inhibition at 10 µM on succinate dehydrogenase was > 90%. The pest or weed control at 100 µg/mL in the experiment with Erysiphe graminis and in the experiment on Sphaerotheca fuliginea was 80 to 100% each time.

`Cn1nc(C(F)F)c(C(=O)N(CC(=C(Cl)Cl)c2c(Br)cc(Br)cc2Br)C2CC2)c1F` [Compound 137]: on succinate dehydrogenase, the inhibition at 10 µM is > 90%. Besides, the pest or weed control at 100 µg/mL in the experiment on Erysiphe graminis and with Sphaerotheca fuliginea was 80 to 100% throughout.

`C=C(CN(C(=O)c1c(C(F)F)nn(C)c1F)C1CC1)c1ccc(Cl)c(Cl)c1` [Compound 10]: the inhibition at 10 µM at succinate dehydrogenase is > 90%. The pest or weed control at 100 µg/mL in the experiment with Erysiphe graminis and with Sphaerotheca fuliginea was 80 to 100% in each case.

For `C=C(c1ccc(F)cc1Cl)C(C)N(C(=O)c1c(C(F)F)nn(C)c1F)C1CC1` (stereo not drawn) [Compound 98], the inhibition at 10 µM on succinate dehydrogenase is > 90%. Also, the pest or weed control at 100 µg/mL in the experiment on Erysiphe graminis and in the experiment with Sphaerotheca fuliginea was 80 to 100% in each case.

On to `C=C(CN(C(=O)c1c(C(F)F)nn(C)c1F)C1CC1)c1cccc(Cl)c1` [Compound 16], for which, on succinate dehydrogenase, the inhibition at 10 µM is > 90%. Moreover, the pest or weed control at 100 µg/mL is 80 to 100% in the experiment with Erysiphe graminis and 70 to 80% in the experiment on Sphaerotheca fuliginea.

Regarding `CC(C(=C(Cl)Cl)c1ccc(Cl)cc1Cl)N(C(=O)c1c(C(F)F)nn(C)c1F)C1CC1` (stereo not drawn) [Compound 170], the inhibition at 10 µM at succinate dehydrogenase was > 90%. Moreover, the pest or weed control at 100 µg/mL in the experiment with Erysiphe graminis and in the experiment on Sphaerotheca fuliginea was 80 to 100% throughout.

Turning to `Cc1ccc(C(C)C)cc1C(=C(Cl)Cl)C(C)N(C(=O)c1c(C(F)F)nn(C)c1F)C1CC1` (stereo not drawn) [Compound 197], the inhibition at 10 µM at succinate dehydrogenase was > 90%. The pest or weed control at 100 µg/mL in the experiment on Erysiphe graminis and in the experiment on Sphaerotheca fuliginea was 80 to 100% in each case.

In the case of `CC(C(=C(Cl)Cl)c1ccc(C#CC2CC2)cc1Cl)N(C(=O)c1c(C(F)F)nn(C)c1F)C1CC1` (stereo not drawn) [Compound 218], the inhibition at 10 µM on succinate dehydrogenase is > 90%. Moreover, the pest or weed control at 100 µg/mL in the experiment with Erysiphe graminis and with Sphaerotheca fuliginea was 80 to 100% throughout.

In the case of `C=C(c1cc(F)cc(F)c1)C(C)N(C(=O)c1c(C(F)F)nn(C)c1F)C1CC1` (stereo not drawn) [Compound 63], at succinate dehydrogenase, the inhibition at 10 µM was > 90%. Besides, the pest or weed control at 100 µg/mL in the experiment with Erysiphe graminis and in the experiment on Sphaerotheca fuliginea was 80 to 100% each time.

For `Cc1cccc(C)c1C(=C(Cl)Cl)C(C)N(C(=O)c1c(C(F)F)nn(C)c1F)C1CC1` (stereo not drawn) [Compound 195], the inhibition at 10 µM on succinate dehydrogenase is > 90%. Moreover, the pest or weed control at 100 µg/mL with Erysiphe graminis and with Sphaerotheca fuliginea was 80 to 100% in each case.

`C=C(CN(C(=O)c1c(C(F)F)nn(C)c1F)C1CC1)c1cc(Cl)ccc1Cl` [Compound 14]: the inhibition at 10 µM at succinate dehydrogenase is > 90%. Moreover, the pest or weed control at 100 µg/mL in the experiment on Erysiphe graminis and in the experiment on Sphaerotheca fuliginea was 80 to 100% in each case.

Turning to `Cn1nc(C(F)F)c(C(=O)N(CC(=C(Cl)Cl)c2cc(Br)ccc2Br)C2CC2)c1F` [Compound 135], the inhibition at 10 µM on succinate dehydrogenase was > 90%. For the same compound, the pest or weed control at 100 µg/mL with Erysiphe graminis and in the experiment with Sphaerotheca fuliginea was 80 to 100% in each case.

Regarding `C=C(CN(C(=O)c1c(C(F)F)nn(C)c1F)C1CC1)c1ccc(F)cc1Cl` [Compound 43], the inhibition at 10 µM on succinate dehydrogenase is > 90%. For the same compound, the pest or weed control at 100 µg/mL in the experiment on Erysiphe graminis and with Sphaerotheca fuliginea was 80 to 100% each time.

In the case of `Cn1nc(C(F)F)c(C(=O)N(CC(=C(Cl)Cl)c2ccc(F)cc2F)C2CC2)c1F` [Compound 126], on succinate dehydrogenase, the inhibition at 10 µM was > 90%. In addition, the pest or weed control at 100 µg/mL with Erysiphe graminis and with Sphaerotheca fuliginea was 80 to 100% in each case.

For the compound `Cn1nc(C(F)F)c(C(=O)N(CC(=C(Cl)Cl)c2cc(Cl)ccc2F)C2CC2)c1F` [Compound 155], the inhibition at 10 µM on succinate dehydrogenase was > 90%. Further, the pest or weed control at 100 µg/mL with Erysiphe graminis and in the experiment with Sphaerotheca fuliginea was 80 to 100% each time.

As to `C=C(c1ccc(S(=O)(=O)CC)cc1)C(C)N(C(=O)c1c(C(F)F)nn(C)c1F)C1CC1` (stereo not drawn) [Compound 107], the inhibition at 10 µM on succinate dehydrogenase is > 90%. Moreover, the pest or weed control at 100 µg/mL in the experiment with Erysiphe graminis and in the experiment on Sphaerotheca fuliginea was 80 to 100% in each case.

As to `C=C(c1cc(C)ccc1C)C(C)N(C(=O)c1c(C(F)F)nn(C)c1F)C1CC1` (stereo not drawn) [Compound 89], the inhibition at 10 µM on succinate dehydrogenase was > 90%. The pest or weed control at 100 µg/mL in the experiment on Erysiphe graminis and with Sphaerotheca fuliginea was 80 to 100% throughout.

In the case of `Cn1nc(C(F)F)c(C(=O)N(CC(=C(Cl)Cl)c2cccc(Br)c2)C2CC2)c1F` [Compound 133], the inhibition at 10 µM on succinate dehydrogenase is > 90%. Further, the pest or weed control at 100 µg/mL in the experiment on Erysiphe graminis and with Sphaerotheca fuliginea was 80 to 100% each time.

With `C=C(c1ccc(C)cc1)C(C)N(C(=O)c1c(C(F)F)nn(C)c1F)C1CC1` (stereo not drawn) [Compound 60], the inhibition at 10 µM on succinate dehydrogenase is > 90%. Also, the pest or weed control at 100 µg/mL in the experiment on Erysiphe graminis and in the experiment on Sphaerotheca fuliginea was 80 to 100% in each case.

With `Cn1nc(C(F)F)c(C(=O)N(CC(=C(Cl)Cl)c2cc(Cl)cc(Cl)c2)C2CC2)c1F` [Compound 122], the inhibition at 10 µM on succinate dehydrogenase is > 90%. The pest or weed control at 100 µg/mL in the experiment with Erysiphe graminis and in the experiment on Sphaerotheca fuliginea was 80 to 100% throughout.

Consider `C=C(c1ccccc1C)C(C)N(C(=O)c1c(C(F)F)nn(C)c1F)C1CC1` (stereo not drawn) [Compound 87], for which the inhibition at 10 µM at succinate dehydrogenase is > 90%. Also, the pest or weed control at 100 µg/mL in the experiment with Erysiphe graminis and in the experiment with Sphaerotheca fuliginea was 80 to 100% in each case.

For `CC(C(=C(Cl)Cl)c1cc(Cl)ccc1Cl)N(C(=O)c1c(C(F)F)nn(C)c1F)C1CC1` (stereo not drawn) [Compound 171], the inhibition at 10 µM on succinate dehydrogenase is > 90%. In addition, the pest or weed control at 100 µg/mL in the experiment on Erysiphe graminis and in the experiment with Sphaerotheca fuliginea was 80 to 100% throughout.

On to `C=C(c1cccc(OC)c1)C(C)N(C(=O)c1c(C(F)F)nn(C)c1F)C1CC1` (stereo not drawn) [Compound 69], for which, at succinate dehydrogenase, the inhibition at 10 µM was > 90%. Further, the pest or weed control at 100 µg/mL with Erysiphe graminis and in the experiment on Sphaerotheca fuliginea was 80 to 100% each time.

Turning to `C=C(c1ccc(Cl)cc1Cl)C(C)N(C(=O)c1c(C(F)F)nn(C)c1F)C1CC1` (stereo not drawn) [Compound 67], the inhibition at 10 µM at succinate dehydrogenase is > 90%. For the same compound, the pest or weed control at 100 µg/mL in the experiment with Erysiphe graminis and in the experiment with Sphaerotheca fuliginea was 80 to 100% in each case.

Turning to `C=C(c1ccc(Br)cc1Br)C(C)N(C(=O)c1c(C(F)F)nn(C)c1F)C1CC1` (stereo not drawn) [Compound 82], on succinate dehydrogenase, the inhibition at 10 µM is > 90%. In addition, the pest or weed control at 100 µg/mL with Erysiphe graminis and with Sphaerotheca fuliginea was 80 to 100% in each case.

On to `C=C(CN(C(=O)c1c(C(F)F)nn(C)c1F)C1CC1)c1cc(C(C)(C)C)ccc1C` [Compound 40], for which the inhibition at 10 µM on succinate dehydrogenase was > 90%. Further, the pest or weed control at 100 µg/mL fell in the range of 80 to 100% in the experiment on Erysiphe graminis and 70 to 80% with Sphaerotheca fuliginea.

On to `Cn1nc(C(F)F)c(C(=O)N(CC(=C(Cl)Cl)c2ccc(Cl)cc2F)C2CC2)c1F` [Compound 153], for which the inhibition at 10 µM at succinate dehydrogenase was > 90%. The pest or weed control at 100 µg/mL with Erysiphe graminis and in the experiment with Sphaerotheca fuliginea was 80 to 100% in each case.

`Cc1ccc(C(C)C)c(C(=C(Cl)Cl)C(C)N(C(=O)c2c(C(F)F)nn(C)c2F)C2CC2)c1` (stereo not drawn) [Compound 198]: on succinate dehydrogenase, the inhibition at 10 µM was > 90%. Also, the pest or weed control at 100 µg/mL in the experiment on Erysiphe graminis and with Sphaerotheca fuliginea was 80 to 100% in each case.

On to `C=C(CN(C(=O)c1c(C(F)F)nn(C)c1F)C1CC1)c1cc(S(C)(=O)=O)ccc1Cl` [Compound 51], for which the inhibition at 10 µM on succinate dehydrogenase was > 90%. Also, the pest or weed control at 100 µg/mL in the experiment with Erysiphe graminis and with Sphaerotheca fuliginea was 80 to 100% throughout.

Regarding `Cn1cc(C(=O)N(CC(=C(Cl)Cl)c2ccc(Cl)cc2)C2CC2)c(C(F)F)n1` [Compound 114], at succinate dehydrogenase, the inhibition at 10 µM was > 90%. In addition, the pest or weed control at 100 µg/mL in the experiment with Erysiphe graminis and in the experiment with Sphaerotheca fuliginea was 80 to 100% throughout.

As to `C=C(c1c(C)cccc1C)C(C)N(C(=O)c1c(C(F)F)nn(C)c1F)C1CC1` (stereo not drawn) [Compound 90], the inhibition at 10 µM at succinate dehydrogenase is > 90%. Further, the pest or weed control at 100 µg/mL in the experiment with Erysiphe graminis and in the experiment with Sphaerotheca fuliginea was 80 to 100% throughout.

Regarding `C=C(c1cccc(Br)c1)C(C)N(C(=O)c1c(C(F)F)nn(C)c1F)C1CC1` (stereo not drawn) [Compound 81], the inhibition at 10 µM on succinate dehydrogenase is > 90%. Besides, the pest or weed control at 100 µg/mL with Erysiphe graminis and in the experiment with Sphaerotheca fuliginea was 80 to 100% each time.

On to `Cc1ccc(C)c(C(=C(Cl)Cl)C(C)N(C(=O)c2c(C(F)F)nn(C)c2F)C2CC2)c1` (stereo not drawn) [Compound 194], for which the inhibition at 10 µM on succinate dehydrogenase is > 90%. The pest or weed control at 100 µg/mL with Erysiphe graminis and with Sphaerotheca fuliginea was 80 to 100% in each case.
